From patent US20200247851A1, “Methods For Generating Epitopes For Binding To Recognition Molecules By Templated Assembly” (TriBiotica LLC, priority 2017, published 2020)
No end group written: not given here. *: point of attachment. Biotin = O=C1N[C@H]2[C@H](CS[C@H]2CCCCC(=O)*)N1

Key:
[1] = tested on: bilabeled fluorescent probe sequence; settings: human EBV-transformed B lymphoid cell line, biotinylated W6/32, streptavidin bridge
Description: Following incubation of cells (10^6/ml) with a biotin conjugate of primary antibody pan-specific for human Class I (W6/32) and washing in phosphate-buffered saline (pH 7.2; PBS), the cell preparation was treated with a large excess of unmodified tetravalent streptavidin (Sigma; 10 μl each of 100 μM streptavidin per 100 μl of cells at 10^6/ml) for 30 minutes at room temperature, and rewashed in PBS.
Following this, a biotinylated template oligonucleotide was added, such that its terminal biotin group becomes bound to free sites on the surface streptavidin. […] The DNA template sequence used in this example corresponds to a transcribed segment of human papillomavirus (HPV), of sequence: 5′-Biotin-[sequence] […] As a control, a scrambled version of this sequence was used: 5′ Biotin-[sequence]

trastuzumab [2] = assay: ELISA of biotinylated mimotope peptides on streptavidin plates titrated with trastuzumab; type: binding; settings: 400 nM biotinylated peptide coating, trastuzumab 2-fold serial dilutions
Description: For intact mimotopes and their analogs, peptides with an N-terminal biotin label and a flexible spacer composed of serine and glycine residues (typically […]; SEQ ID NO:110) were used.
ELISA plates coated with tetravalent streptavidin were obtained for the assay, either from a commercial source (such as Thermofisher) or made by incubating polystyrene 96-well ELISA plates with solutions of streptavidin in PBS (1 μM) 16 hours/4° C., followed by blocking with a solution of bovine serum albumin (BSA) at 10 mg/ml in PBS pH 7.2, also for 16 hours/4° C. Plates were then emptied of solutions and washed three times with 100 μl PBS containing 0.05% Tween 20 (PBS-Tw20).
A suitable dilution series of the biotinylated peptides of interest was prepared in PBS, and at least duplicates (or higher numbers of replicates) were added to pre-designated wells in 100 μl volumes, and the plate incubated for 2 hours at room temperature (covered in Saran wrap). […] After a 30 minute incubation, reactions were stopped with 1 M sulfuric acid, and results assessed with an automated plate reader for absorbances at 450 nm. Final data was compiled from averaged replicates for each determination with subtraction of absorbances observed in wells where no target peptide antigen was added. […]

trastuzumab [3] = assay: Flow analysis of trastuzumab mimotope placed on HER-2-negative MU89 cells via streptavidin bridge; type: cell-based; settings: MU89 melanoma cells, W6/32 biotinylated primary antibody, fluoresceinated goat anti-kappa read-out
Text: In common with Example 11, for the repurposing of an antibody epitope by placement of a peptide mimotope on a cell surface, a surface marker for the cell type of interest was defined. […] The complex (biotinylated template-streptavidin-primary antibody) was then assembled on MU89 surface. Following that procedure and washing, biotinylated mimotope (Biotin-[…] ELWELSH; SEQ ID NO:35) was allowed to bind to the surface streptavidin. […] Subsequently, since trastuzumab is a humanized antibody with kappa light chains, a fluoresceinated goat anti-kappa antibody served to provide the final fluorescent read-out enabling flow analysis. […] However, it should be noted that while an amplification effect for fluorescent signal results from the multi-layered sandwich technique of this approach, the overall signal is ultimately linked to the level of expression of the primary antibody target.

trastuzumab [4] = settings: L1 Q substitution; cited from earlier work
[5] = tested on: biotinylated anti-BRD7 Fab (bFab); assay: Direct Binding Assay using streptavidin magnetic beads, denaturing gel read-out; parameters: species or system murine; settings: with vs without bFab, PBSM
Description: Aptamers were incubated with bFab (2.5-fold molar excess), then bound to SAMBs. Supernatants were taken, and the SAMBs washed 3 times. Bound material was eluted with 0.1 M NaOH, and then precipitated, washed, dried, and reconstituted before loading samples on a denaturing acrylamide gel.
To assess binding of 10th-cycle singlet aptamers to the selective agent (the Fab target), direct binding assays were carried out. Here, single-stranded aptamer preparations (self-annealed as usual) were incubated with or without biotinylated Fab fragments in PBSM, followed by adsorption onto streptavidin magnetic beads. After this incubation period, the beads were magnetically separated, and the supernatants retained. […]
Despite successful in situ assembly of binary aptamers upon the target to which they were bound (as in Example 1), it could not be assumed that binary aptamers formed in solution would be capable of binding the same targets. This was assessed using the same aptamers as used in direct binding tests (Example 3; 228/10AptR1 and 229/10AptL3), but where the aptamers were initially ligated together by means of the same splint oligonucleotide as used in Example 1. […]

## 5′ Biotin-TAGCGCAAATAAGCCGCCAGAAC GATGATATAAACAGCATTAGGTAAGCTACAACA [control scrambled sequence, reference compound]
[1]
  fluorescence signal of bilabeled probe hybridized to surface template: not

## 5′-Biotin-TAACTGTCAAAAGCCACTGTGTC CTGAAGAAAAGCAAAGACATCTGGACAAAAAGC
[1]
  fluorescence signal of bilabeled probe hybridized to surface template: significant signal

## Bio-SGGGSGGGQLGPYELWEL CH (Biotin-SGGGSGGGQLGPYELWELCH) [cysteine-modified mimotope]
Trastuzumab [2]
  recognition by Trastuzumab compared with the unmodified mimotope: almost the same extent
  slope of trastuzumab titration curve, less than that seen for the unmodified peptide: approximately 10%

## Bio-SGGGSGGGQLGPYELWELSH (Biotin-SGGGSGGGQLGPYELWELSH) [unmodified mimotope]
Trastuzumab [3]
  fluorescent signal from trastuzumab: clear-cut fluorescent signal

## QLGPYEL WELSH (QLGPYELWELSH; segment of the mimotope) [mimotope for trastuzumab]
Trastuzumab [4]
  binding affinity relative to the initial mimotope LLGPYELWEL SH: higher binding affinity

B1: GCAAAGACATCTGGACA CGCCACTTATAGTCTACGTGAAGCACTGCGCTGGAACAGCCTAAAAAAGGAGAAGG AGACTTAGAGGC (nucleic acid)
DNA: GCAAAGACATCTGGACACGCCACTTATAGTCTACGTGAAGCACTGCGCTGGAACAGCCTAAAAAAGGAGAAGGAGACTTAGAGGC
modifications: chemistry not given here
[5]
  binding to biotinylated Fab (bound material eluted from streptavidin magnetic beads): not
